The supplement of paper PMC11451515

Test system: SEM cells
Experiment: cell viability relative to DMSO control; higher = less cytotoxic
Settings: 48 h
Outline: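 Library compounds in DMSO were pin-dosed in an 11-point threefold series (47 μM to 0.79 nM) onto leukemia cells in 1536-well plates (5 μl). Plates held 500 cells/well of NOMO1 or SEM or 1000 cells/well of P12-Ichikawa, each adapted for at least four passages in each medium. Luminescence was read with CellTiter-Glo One after 48 h at 37°C. Viability means the per-plate percentage relative to DMSO wells, using cell-free wells as background.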

[1] = HPLM + 10% dialyzed FBS, 0.000781 µM
[2] = HPLM + 10% dialyzed FBS, 0.00234 µM
[3] = HPLM + 10% dialyzed FBS, 0.00702 µM
[4] = HPLM + 10% dialyzed FBS, 0.0211 µM
[5] = HPLM + 10% dialyzed FBS, 0.0632 µM
[6] = HPLM + 10% dialyzed FBS, 0.19 µM
[7] = HPLM + 10% dialyzed FBS, 0.569 µM
[8] = HPLM + 10% dialyzed FBS, 1.71 µM
[9] = HPLM + 10% dialyzed FBS, 5.12 µM
[10] = HPLM + 10% dialyzed FBS, 15.4 µM
[11] = HPLM + 10% dialyzed FBS, 46.1 µM
[12] = RPMI 5 mM glucose + 10% FBS, 0.000781 µM
[13] = RPMI 5 mM glucose + 10% FBS, 0.00234 µM
[14] = RPMI 5 mM glucose + 10% FBS, 0.00702 µM
[15] = RPMI 5 mM glucose + 10% FBS, 0.0211 µM
[16] = RPMI 5 mM glucose + 10% FBS, 0.0632 µM
[17] = RPMI 5 mM glucose + 10% FBS, 0.19 µM
[18] = RPMI 5 mM glucose + 10% FBS, 0.569 µM
[19] = RPMI 5 mM glucose + 10% FBS, 1.71 µM
[20] = RPMI 5 mM glucose + 10% FBS, 5.12 µM
[21] = RPMI 5 mM glucose + 10% FBS, 15.4 µM
[22] = RPMI 5 mM glucose + 10% FBS, 46.1 µM
[23] = RPMI 5 mM glucose + 10% dialyzed FBS, 0.000781 µM
[24] = RPMI 5 mM glucose + 10% dialyzed FBS, 0.00234 µM
[25] = RPMI 5 mM glucose + 10% dialyzed FBS, 0.00702 µM
[26] = RPMI 5 mM glucose + 10% dialyzed FBS, 0.0211 µM
[27] = RPMI 5 mM glucose + 10% dialyzed FBS, 0.0632 µM
[28] = RPMI 5 mM glucose + 10% dialyzed FBS, 0.19 µM
[29] = RPMI 5 mM glucose + 10% dialyzed FBS, 0.569 µM
[30] = RPMI 5 mM glucose + 10% dialyzed FBS, 1.71 µM
[31] = RPMI 5 mM glucose + 10% dialyzed FBS, 5.12 µM
[32] = RPMI 5 mM glucose + 10% dialyzed FBS, 15.4 µM
[33] = RPMI 5 mM glucose + 10% dialyzed FBS, 46.1 µM

SMILES	cell viability [1] [%]	cell viability [2] [%]	cell viability [3] [%]	cell viability [4] [%]	cell viability [5] [%]	cell viability [6] [%]	cell viability [7] [%]	cell viability [8] [%]	cell viability [9] [%]	cell viability [10] [%]	cell viability [11] [%]	cell viability [12] [%]	cell viability [13] [%]	cell viability [14] [%]	cell viability [15] [%]	cell viability [16] [%]	cell viability [17] [%]	cell viability [18] [%]	cell viability [19] [%]	cell viability [20] [%]	cell viability [21] [%]	cell viability [22] [%]	cell viability [23] [%]	cell viability [24] [%]	cell viability [25] [%]	cell viability [26] [%]	cell viability [27] [%]	cell viability [28] [%]	cell viability [29] [%]	cell viability [30] [%]	cell viability [31] [%]	cell viability [32] [%]	cell viability [33] [%]
C[C@]12CC[C@H]3[C@@H](CC(=C)\C4=C\C(=O)\C=C/[C@]34C)[C@@H]1CCC2=O	89.7	92.6	96.3	105	107	92.8	94.4	90.7	97.8	34.9	64.8	111	90.8	89.2	96.9	98	95.3	104	106	114	36.5	54.6	98.1	86.9	96.4	110	103	101	115	111	115	33.2	59.9
CC(=O)SC[C@@H](C)C(=O)N1CCC[C@H]1C(=O)N[C@@H](Cc1ccccc1)C(=O)O	116	107	99.6	110	115	103	111	106	107	66.7	83.3	83.8	86.2	95.3	98.1	105	97.7	110	97.2	113	87.1	72.6	95.1	98.3	114	104	104	103	107	101	110	101	85.7
CN(C)CCCC1(c2ccc(F)cc2)OCc2cc(C#N)ccc21 (centres undefined)	94.8	101	103	106	100	94.5	91.7	96.7	83.6	86.9	73.6	91.5	99.4	89.4	99.1	86.5	96.6	82.4	93.1	74.2	90.2	78.1	109	109	106	108	113	120	84.1	105	70.7	92.2	76
C[C@@H]1[C@H]\2[C@H](O)[C@H]3[C@H](N(C)C)\C(=C(C(N)=O)/C(=O)[C@@]3(O)\C(=C2C(=O)C4=C(O)C=CC=C14)O)O												115	131	110	127	109	145	122	121	126	102	123	123	122	123	122	108	133	149	144	113	89.9	93.4
CNc1nc(-c2ccc3c(N)n[nH]c3c2)cc(N2C[C@@H](C(=O)NC3CCCCC3)CC[C@H]2C)n1	72.6	90	83.9	81.1	83.1	84.7	59.8	57.3	60.3	48.5	14.3	89.8	85.9	102	108	88.8	113	82.1	78.8	71.5	47.9	2.66	80.6	90.7	76.8	76.1	79.4	83.1	71.2	57.9	63.1	50.7	10.9
O=C(O)c1cc(O)c2c(c1)C(=O)c1cccc(O)c1C2=O	112	113	103	108	110	116	89.7	111	96.8	92.9	91.9	105	108	105	106	104	120	108	111	97.9	92.9	84.4	119	116	108	117	118	105	111	113	116	96.6	84.9
C[C@@H]1CC[C@@]2(CC[C@]3(C)\C(=C/C[C@@H]4[C@@]5(C)CC[C@H](O)C(C)(C)[C@@H]5CC[C@@]34C)[C@@H]2[C@H]1C)C(O)=O	85.6	109	111	110	112	116	123	122	108	117	121	105	101	108	96.2	113	123	109	99.2	102	114	61.6	107	116	114	111	112	118	118	136	129	118	110
C/C1=C2/[N]3[Co+]456([OH])<-[N]7=C1[C@@H](CCC(N)=O)C(C)(C)/C7=C/C1=[N]->4C(=C(/C)C4=[N]->5[C@@](C)([C@H]3[C@H](CC(N)=O)[C@@]2(C)CCC(=O)NC[C@@H](C)OP(=O)([O-])O[C@H]2[C@@H](O)[C@@H](n3c[n]->6c5cc(C)c(C)cc53)O[C@@H]2CO)[C@@](C)(CC(N)=O)[C@@H]4CCC(N)=O)/[C@@](C)(CC(N)=O)[C@@H]1CCC(N)=O	93.9	90.7	94.6	98.2	98.3	94.2	94.6	92.8	94.5	73.8	60.1	112	116	104	82.5	113	95.9	99.3	97.3	77.1	91.6	79.9	96.4	96.6	109	100	110	95.6	101	101	103	80.4	71
COc1cc(NCc2ccc3nc(N)nc(N)c3c2C)cc(OC)c1OC	78.1	89.2	91.1	100	99.6	104	99.7	38.1	40.3	32.5	12.1	69.1	94.4	84.9	84.9	96.8	93.2	96.8	24.4	98.4	72.5	3.26	74.5	89.3	88.6	82.3	94.4	94.8	102	23.9	62.9	35.7	3.29
OC1=CC=C(C=C1)C/2=C/C3=C(OC2)C=C(O)C=C3	107	111	112	109	114	120	101	84.9	21.2	2.3	1.5	108	117	122	115	109	106	80.8	93.1	23.7	1.46	1.13	111	107	125	90.8	99.1	108	85.5	89.1	25	2.21	1.74
CO[C@H]1CCC(O[C@H]2C[C@H]([C@]3(C)CC[C@]4(C[C@H](O)[C@@H](C)[C@@H]([C@@H](C)/C=C(\C)C(=O)[C@H](C)C[C@H](C)C(=O)[O-])O4)O3)O[C@]3(O[C@@H]([C@H]4O[C@@](O)(CO)[C@H](C)C[C@@H]4C)C[C@@H]3C)[C@@H]2C)O[C@@H]1C (some centres undefined)												121	119	112	108	117	128	98.3	66.6	29.8	18.7	14.3											
Oc1ccc(OCc2ccccc2)cc1	89.8	106	98.9	113	20.8	103	106	97.1	92.5	47.7	28.7	103	106	108	110	13.6	113	114	104	77.6	58.3	31.6	112	114	130	119	47.4	109	126	109	98.9	69.2	30.3
COc1ccc(CCC(=O)c2c(O)cc(O[C@@H]3O[C@H](CO)[C@@H](O)[C@H](O)[C@H]3O[C@@H]3O[C@@H](C)[C@H](O)[C@@H](O)[C@H]3O)cc2O)cc1O	112	115	120	128	128	119	128	119	134	124	116																						
NC1=NC(=O)N2CC12 (centres undefined)	84.2	79.8	87.7	86.3	87.2	76.5	94.9	60.6	34.9	3.13	2.28	106	82.3	86.8	104	85.1	82.6	85.2	43	25.6	2.22	2.07	77.3	79.6	82.5	78.7	79.3	69.3	84.1	51.4	23.9	1.65	1.54
Oc1cc(-c2nc(-c3ccccc3)[nH]c2-c2ccncc2)ccc1Cl	105	115	118	110	104	122	103	104	107	100	80.3	120	114	115	117	107	111	122	116	106	111	45.2											
